# Reference: ChEMBL document CHEMBL4376889, “Discovery of a Brain-Penetrant ATP-Competitive Inhibitor of the Mechanistic Target of Rapamycin (mTOR) for CNS Disorders” (J Med Chem, 2020)
# Activity calls are given as the source filed them. The rule behind the calls is not given here.
# Columns and labels:
# MDR1 = assay: Efflux ratio of permeability from basolateral to apical over apical to basolateral side in MDCK-MDR1 cells; type: ADME, cell-based, Canis lupus familiaris; conditions: dog
# [1] = Stability in rat liver microsomes assessed as intrinsic clearance; type: ADME, Microsome; conditions: read-out: CLH
# [2] = Stability in rat liver microsomes assessed as intrinsic clearance at 1 uM incubated for 30 mins by LC-MS/MS analysis; type: ADME, Microsome; conditions: read-out: CLH
# [3] = biological target: Myosin light chain kinase, smooth muscle (Homo sapiens) (UniProt Q15746); assay: Inhibition of wild-type human […] MYLK (M854 to E1845 residues) expressed in mammalian expression system at 10000 nM by Kinomescan method
# Sequence of Myosin light chain kinase, smooth muscle (Homo sapiens) (Q15746 whole entry, the tested form may be a part): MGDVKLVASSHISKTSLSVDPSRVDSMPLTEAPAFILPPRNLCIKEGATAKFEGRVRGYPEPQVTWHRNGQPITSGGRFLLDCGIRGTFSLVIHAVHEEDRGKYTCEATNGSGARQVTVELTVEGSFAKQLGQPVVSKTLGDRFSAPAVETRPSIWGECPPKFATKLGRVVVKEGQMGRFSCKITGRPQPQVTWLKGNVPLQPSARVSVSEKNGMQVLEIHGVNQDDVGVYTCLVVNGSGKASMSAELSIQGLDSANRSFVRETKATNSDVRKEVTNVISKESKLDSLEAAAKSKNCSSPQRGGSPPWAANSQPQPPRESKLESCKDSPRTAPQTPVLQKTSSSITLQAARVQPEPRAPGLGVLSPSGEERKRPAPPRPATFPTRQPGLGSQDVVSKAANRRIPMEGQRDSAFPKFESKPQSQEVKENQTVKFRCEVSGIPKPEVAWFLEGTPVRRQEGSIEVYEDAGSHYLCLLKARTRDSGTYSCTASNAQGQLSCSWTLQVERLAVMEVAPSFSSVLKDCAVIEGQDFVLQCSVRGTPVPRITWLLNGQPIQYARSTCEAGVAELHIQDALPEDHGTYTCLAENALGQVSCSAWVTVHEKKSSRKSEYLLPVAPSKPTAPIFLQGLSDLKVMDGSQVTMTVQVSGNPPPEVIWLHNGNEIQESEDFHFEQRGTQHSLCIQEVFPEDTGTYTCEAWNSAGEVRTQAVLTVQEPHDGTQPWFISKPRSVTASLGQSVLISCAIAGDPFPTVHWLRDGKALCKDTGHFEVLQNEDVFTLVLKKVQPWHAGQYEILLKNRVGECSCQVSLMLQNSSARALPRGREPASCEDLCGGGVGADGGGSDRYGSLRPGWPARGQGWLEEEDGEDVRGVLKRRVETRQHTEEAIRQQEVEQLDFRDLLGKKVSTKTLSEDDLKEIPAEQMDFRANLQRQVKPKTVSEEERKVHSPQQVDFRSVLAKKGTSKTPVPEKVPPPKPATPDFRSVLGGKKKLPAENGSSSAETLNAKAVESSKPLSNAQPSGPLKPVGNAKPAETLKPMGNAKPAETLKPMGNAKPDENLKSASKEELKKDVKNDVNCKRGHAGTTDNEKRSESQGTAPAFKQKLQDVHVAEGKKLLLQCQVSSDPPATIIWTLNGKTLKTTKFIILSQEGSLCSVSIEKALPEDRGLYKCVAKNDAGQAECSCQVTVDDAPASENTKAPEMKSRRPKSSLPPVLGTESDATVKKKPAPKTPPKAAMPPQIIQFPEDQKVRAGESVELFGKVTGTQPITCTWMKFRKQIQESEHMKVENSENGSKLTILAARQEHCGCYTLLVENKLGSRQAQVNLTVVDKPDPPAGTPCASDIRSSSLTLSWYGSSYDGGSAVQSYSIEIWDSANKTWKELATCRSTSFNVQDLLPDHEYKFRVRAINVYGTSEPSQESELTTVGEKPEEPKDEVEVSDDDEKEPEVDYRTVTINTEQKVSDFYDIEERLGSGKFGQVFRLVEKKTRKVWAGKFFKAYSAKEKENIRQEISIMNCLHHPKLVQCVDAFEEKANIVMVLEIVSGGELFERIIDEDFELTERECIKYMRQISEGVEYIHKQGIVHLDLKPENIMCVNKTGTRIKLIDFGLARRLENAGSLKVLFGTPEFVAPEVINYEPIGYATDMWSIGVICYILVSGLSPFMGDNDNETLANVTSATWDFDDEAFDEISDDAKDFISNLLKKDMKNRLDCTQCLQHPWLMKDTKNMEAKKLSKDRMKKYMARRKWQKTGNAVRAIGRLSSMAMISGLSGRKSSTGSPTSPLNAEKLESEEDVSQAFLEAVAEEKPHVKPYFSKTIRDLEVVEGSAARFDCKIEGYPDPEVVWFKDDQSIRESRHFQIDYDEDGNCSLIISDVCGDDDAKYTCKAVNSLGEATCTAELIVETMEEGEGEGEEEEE
# [4] = biological target: 1-phosphatidylinositol 3-phosphate 5-kinase (Homo sapiens) (UniProt Q9Y2I7); assay: Inhibition of wild-type human partial length PIKFYVE (F1512 to C2098 residues) expressed in mammalian expression system at 10000 nM by Kinomescan method
# [5] = biological target: Serine-protein kinase ATM (Homo sapiens, UniProt Q13315); assay: Inhibition of ATM (unknown origin) assessed as reduction in CHK2 phosphorylation by cell based assay
# [6] = Selectivity index, ratio of IC50 for ATM (unknown origin) to IC50 for inhibition of mTOR in mouse MEF cells harboring TSC1 deletion mutant; type: cell-based
# [7] = Selectivity index, ratio of IC50 for DNAPK (unknown origin) to IC50 for inhibition of mTOR in mouse MEF cells harboring TSC1 deletion mutant; type: cell-based
# [8] = biological target: 3',5'-cyclic-AMP phosphodiesterase 4D (Homo sapiens, UniProt Q08499); assay: Inhibition of PDE4D (unknown origin)
# [9] = AUC (0 to t) in C57BL/6 mouse at 5 mg/kg, po by HPLC analysis; type: ADME, organism-based; conditions: in vivo
# [10] = Tmax in C57BL/6 mouse at 1 mg/kg, iv or 5 mg/kg, po by HPLC analysis; type: ADME, organism-based; conditions: in vivo
# [11] = Half life in C57BL/6 mouse at 1 mg/kg, iv or 5 mg/kg, po by HPLC analysis; type: ADME, organism-based; conditions: in vivo
# [12] = AUC (0 to t) in Sprague-Dawley rat at 1 mg/kg, iv by HPLC analysis; type: ADME, organism-based; conditions: in vivo
# [13] = AUC (0 to t) in Sprague-Dawley rat at 3 mg/kg, po by HPLC analysis; type: ADME, organism-based; conditions: in vivo
# [14] = Tmax in Sprague-Dawley rat at 1 mg/kg, iv or 3 mg/kg, po by HPLC analysis; type: ADME, organism-based; conditions: in vivo
# [15] = Volume of distribution at steady state in Sprague-Dawley rat at 1 mg/kg, iv or 3 mg/kg, po by HPLC analysis; type: ADME, organism-based; conditions: in vivo, read-out: Vdss
# [16] = Half life in Sprague-Dawley rat at 1 mg/kg, iv or 3 mg/kg, po by HPLC analysis; type: ADME, organism-based; conditions: in vivo
# [17] = biological target: Serine/threonine-protein kinase mTOR (Mus musculus) (UniProt Q9JLN9); assay: Inhibition of mTOR in mouse primary cortical neuron harboring TSC1 deletion mutant assessed as reduction in PS6 phosphorylation incubated for 4 hrs by Western blot analysis
# Cortical neurone [18] = assay: Inhibition of overgrowth of mouse primary cortical neuron harboring TSC1 deletion mutant at 200 nM incubated for 7 days by immunofluorescence assay; type: functional, cell-based
# Cortical neurone [19] = assay: Inhibition of oversizing of mouse primary cortical neuron harboring TSC1 deletion mutant at 200 nM incubated for 7 days by immunofluorescence assay; type: functional, cell-based; conditions: 168 h
# [20] = biological target: Serine/threonine-protein kinase mTOR (Rattus norvegicus, UniProt P42346, S2215F); assay: Inhibition of mTOR S2215F mutant in rat primary cortical neuron assessed as reduction in PS6 phosphorylation incubated for 4 hrs by Western blot analysis (reference value: 19 nM)
# Sequence of Serine/threonine-protein kinase mTOR (Rattus norvegicus, UniProt P42346, S2215F) (P42346 whole entry S2215F, looked up): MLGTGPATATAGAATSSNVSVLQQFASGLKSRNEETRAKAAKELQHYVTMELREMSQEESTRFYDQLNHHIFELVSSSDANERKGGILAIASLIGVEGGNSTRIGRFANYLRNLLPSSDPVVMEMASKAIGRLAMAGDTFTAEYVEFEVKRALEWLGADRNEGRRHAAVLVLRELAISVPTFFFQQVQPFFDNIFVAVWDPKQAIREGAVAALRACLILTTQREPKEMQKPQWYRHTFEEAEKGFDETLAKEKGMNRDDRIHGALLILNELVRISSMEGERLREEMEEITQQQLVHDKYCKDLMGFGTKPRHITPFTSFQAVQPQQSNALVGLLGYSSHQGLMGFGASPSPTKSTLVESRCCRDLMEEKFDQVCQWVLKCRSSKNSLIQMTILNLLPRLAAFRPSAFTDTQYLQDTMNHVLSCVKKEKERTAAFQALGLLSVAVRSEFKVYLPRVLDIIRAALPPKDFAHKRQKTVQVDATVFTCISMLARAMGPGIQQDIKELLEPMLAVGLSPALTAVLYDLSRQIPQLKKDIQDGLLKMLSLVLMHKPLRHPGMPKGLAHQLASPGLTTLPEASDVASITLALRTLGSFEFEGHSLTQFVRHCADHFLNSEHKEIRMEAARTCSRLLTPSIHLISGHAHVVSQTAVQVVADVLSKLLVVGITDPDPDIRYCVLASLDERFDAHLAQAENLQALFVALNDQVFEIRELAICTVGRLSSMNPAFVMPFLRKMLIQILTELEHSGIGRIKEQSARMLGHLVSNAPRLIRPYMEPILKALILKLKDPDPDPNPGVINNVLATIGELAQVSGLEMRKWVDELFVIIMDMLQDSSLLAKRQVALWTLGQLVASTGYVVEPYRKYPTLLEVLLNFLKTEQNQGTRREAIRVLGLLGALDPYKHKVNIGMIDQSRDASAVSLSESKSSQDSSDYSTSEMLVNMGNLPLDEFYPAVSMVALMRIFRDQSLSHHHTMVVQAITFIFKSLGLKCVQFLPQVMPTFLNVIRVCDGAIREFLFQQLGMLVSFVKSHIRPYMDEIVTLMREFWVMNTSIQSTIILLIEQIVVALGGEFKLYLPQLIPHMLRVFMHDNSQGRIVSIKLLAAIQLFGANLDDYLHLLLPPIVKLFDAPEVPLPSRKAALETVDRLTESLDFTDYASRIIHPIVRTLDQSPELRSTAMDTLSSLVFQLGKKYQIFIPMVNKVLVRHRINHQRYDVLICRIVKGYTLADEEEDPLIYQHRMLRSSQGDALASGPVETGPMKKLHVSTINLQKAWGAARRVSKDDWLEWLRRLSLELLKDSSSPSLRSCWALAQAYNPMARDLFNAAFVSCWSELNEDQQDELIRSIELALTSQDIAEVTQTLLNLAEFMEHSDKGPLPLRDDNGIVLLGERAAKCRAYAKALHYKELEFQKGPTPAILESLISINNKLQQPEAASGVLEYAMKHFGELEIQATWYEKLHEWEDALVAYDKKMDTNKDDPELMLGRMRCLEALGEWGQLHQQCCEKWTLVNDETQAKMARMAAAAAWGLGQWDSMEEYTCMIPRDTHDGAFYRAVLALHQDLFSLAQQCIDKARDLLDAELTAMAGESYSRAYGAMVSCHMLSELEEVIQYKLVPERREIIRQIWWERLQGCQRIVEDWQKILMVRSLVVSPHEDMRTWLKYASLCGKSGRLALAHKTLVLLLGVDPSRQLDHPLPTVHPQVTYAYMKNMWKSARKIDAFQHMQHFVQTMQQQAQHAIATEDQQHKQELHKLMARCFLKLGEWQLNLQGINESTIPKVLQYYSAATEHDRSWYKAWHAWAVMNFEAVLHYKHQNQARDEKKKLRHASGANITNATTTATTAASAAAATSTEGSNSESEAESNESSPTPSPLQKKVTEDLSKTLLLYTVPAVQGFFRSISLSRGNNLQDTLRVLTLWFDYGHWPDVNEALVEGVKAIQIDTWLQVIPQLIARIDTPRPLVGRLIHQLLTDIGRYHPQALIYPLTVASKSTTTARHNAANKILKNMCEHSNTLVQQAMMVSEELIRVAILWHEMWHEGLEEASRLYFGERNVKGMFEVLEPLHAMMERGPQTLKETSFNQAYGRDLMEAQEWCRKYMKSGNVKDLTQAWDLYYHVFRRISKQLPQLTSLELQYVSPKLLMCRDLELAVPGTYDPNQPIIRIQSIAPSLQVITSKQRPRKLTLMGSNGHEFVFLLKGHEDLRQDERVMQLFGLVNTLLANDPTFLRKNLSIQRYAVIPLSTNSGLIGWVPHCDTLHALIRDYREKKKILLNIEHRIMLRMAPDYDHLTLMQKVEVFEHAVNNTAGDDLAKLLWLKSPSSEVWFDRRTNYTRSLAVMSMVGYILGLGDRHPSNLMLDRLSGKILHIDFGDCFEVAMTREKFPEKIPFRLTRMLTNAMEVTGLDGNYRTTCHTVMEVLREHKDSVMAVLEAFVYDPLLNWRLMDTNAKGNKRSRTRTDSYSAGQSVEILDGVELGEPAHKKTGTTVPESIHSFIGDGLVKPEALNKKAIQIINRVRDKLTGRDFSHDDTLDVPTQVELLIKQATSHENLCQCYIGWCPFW
# [21] = biological target: Serine/threonine-protein kinase mTOR (Rattus norvegicus, UniProt P42346, S2215Y); assay: Inhibition of mTOR S2215Y mutant in rat primary cortical neuron assessed as reduction in PS6 phosphorylation incubated for 4 hrs by Western blot analysis (reference value: 19 nM)
# Sequence of Serine/threonine-protein kinase mTOR (Rattus norvegicus, UniProt P42346, S2215Y) (P42346 whole entry S2215Y, looked up): as the sequence (P42346 whole entry S2215F, looked up) above, with F2215Y counted along it
# [22] = biological target: Serine/threonine-protein kinase mTOR (Rattus norvegicus, UniProt P42346, L2427P); assay: Inhibition of mTOR L2427P mutant in rat primary cortical neuron assessed as reduction in PS6 phosphorylation incubated for 4 hrs by Western blot analysis (reference value: 19 nM)
# Sequence of Serine/threonine-protein kinase mTOR (Rattus norvegicus, UniProt P42346, L2427P) (P42346 whole entry L2427P, looked up): as the sequence (P42346 whole entry S2215F, looked up) above, with F2215S, L2427P counted along it
# [23] = biological target: Serine/threonine-protein kinase mTOR (Rattus norvegicus, UniProt P42346, E2419K); assay: Inhibition of mTOR E2419K mutant in rat primary cortical neuron assessed as reduction in PS6 phosphorylation incubated for 4 hrs by Western blot analysis (reference value: 19 nM)
# Sequence of Serine/threonine-protein kinase mTOR (Rattus norvegicus, UniProt P42346, E2419K) (P42346 whole entry E2419K, looked up): as the sequence (P42346 whole entry S2215F, looked up) above, with F2215S, E2419K counted along it
# Mus musculus [24] = assay: In vivo inhibition of mTOR pathway in C57BL/6J mouse assessed as reduction in mTORC1/mTORC2 complex by measuring PS6 phosphorylation level at 1 to 10 mg/kg, po measured after 24 hrs by Western blot analysis; type: functional, organism-based
# Mus musculus [25] = assay: In vivo inhibition of mTOR pathway in C57BL/6J mouse assessed as reduction in mTORC1/mTORC2 complex by measuring AKT phosphorylation level at 1 to 10 mg/kg, po measured after 8 hrs by Western blot analysis; type: functional, organism-based
# Mus musculus [26] = assay: In vivo inhibition of mTOR pathway in C57BL/6J mouse assessed as reduction in mTORC1/mTORC2 complex by measuring AKT phosphorylation level at 1 to 10 mg/kg, po measured after 24 hrs by Western blot analysis; type: functional, organism-based
# [27] = Drug uptake in C57BL/6J mouse plasma at 1 mg/kg, po incubated for 3 hrs by LC-MS/MS analysis; type: ADME, organism-based
# [28] = Drug uptake in C57BL/6J mouse plasma at 3 mg/kg, po incubated for 3 hrs by LC-MS/MS analysis; type: ADME, organism-based
# [29] = Drug uptake in C57BL/6J mouse plasma at 10 mg/kg, po incubated for 3 hrs by LC-MS/MS analysis; type: ADME, organism-based
# [30] = Drug uptake in C57BL/6J mouse brain at 3 mg/kg, po incubated for 3 hrs by LC-MS/MS analysis; type: ADME, organism-based; conditions: read-out: Drug uptake
# [31] = Drug uptake in C57BL/6J mouse brain at 10 mg/kg, po incubated for 3 hrs by LC-MS/MS analysis; type: ADME, organism-based; conditions: read-out: Drug uptake
# [32] = Ratio of drug concentration in brain to plasma in C57BL/6J mouse at 1 mg/kg, po incubated for 3 hrs by LC-MS/MS analysis; type: ADME, organism-based; conditions: read-out: BPR
# [33] = Ratio of drug concentration in brain to plasma in C57BL/6J mouse at 3 mg/kg, po incubated for 3 hrs by LC-MS/MS analysis; type: ADME, organism-based; conditions: read-out: BPR
# Mus musculus [34] = assay: Protection against C57BL/6J mouse model of neuronal mTOR hyperactivity assessed as survival rate at 10 mg/kg, ip administered on postnatal day 22 daily and measured on postnatal day 36 (reference value: 48 %); type: functional
# Mus musculus [35] = assay: Protection against C57BL/6J mouse model of neuronal mTOR hyperactivity assessed as survival rate at 10 mg/kg, ip administered on postnatal day 22 daily and measured on postnatal day 52 (reference value: 48 %); type: functional
compound,measurement,setting,value
C[C@@H]1COCCN1c1nc(N2CCOC[C@@H]2C)nc2sc(-c3cc[nH]n3)nc12,efflux ratio,MDR1,0.93
same,microsomal CLint,[1],42 µL/min/mg
same,microsomal CLint at 1 µM,[2],42 µL/min/mg
same,inhibition,[3],Active
same,inhibition,[4],Active
same,IC50,[5],20 nM
same,Ratio IC50,[6],3570
same,Ratio IC50,[7],230
same,IC50,[8],210 nM
same,AUC(0-t),[9],14.9 µM·h
same,Tmax,[10],1.3 h
same,half-life,[11],4.3 h
same,AUC(0-t),[12],4.34 µM·h
same,AUC(0-t),[13],10.5 µM·h
same,Tmax,[14],1.5 h
same,Vd,[15],2.6 L/kg
same,half-life,[16],3.7 h
same,inhibition,[17],Dose-dependent effect
same,inhibition,Cortical neurone [18],Active
same,IC50,Cortical neurone [19],30 nM
same,IC50,[20],17 nM
same,IC50,[21],14 nM
same,IC50,[22],24 nM
same,IC50,[23],22 nM
same,inhibition,Mus musculus [24],inactive
same,inhibition,Mus musculus [25],Active
same,inhibition,Mus musculus [26],inactive
same,concentration at 3 h,[27],826 nM
same,concentration at 3 h,[28],2210 nM
same,concentration at 3 h,[29],4470 nM
same,concentration at 3 h,[30],2390 nM
same,concentration at 3 h,[31],5820 nM
same,Kp at 3 h,[32],1.1
same,Kp at 3 h,[33],1.1
same,Activity,Mus musculus [34],95%
same,Activity,Mus musculus [35],84%
